Assay results: patent US9187415B2, “Sulfonamides as HIV protease inhibitors” (Merck Canada Inc., priority 2010, dated 2015)
pIC50: −log10 of the molar value.

Key:
[1] = system: human immunodeficiency virus type 1; assay: Acute Infection Assay (Spread); format: cell-based, HIV-1; conditions: Human immunodeficiency virus 1; 10% FBS; mean of at least two independent experiments; read-out: Spread IC95
Source text: Acute Infection Assay (“Spread”) data were generated in 10% FBS, and according to the methods disclosed by J. P. Vacca et al, “L-735,524: An orally bioavailable human immunodeficiency virus type 1 protease inhibitor,” Proc. Nati. Acad. Sci. USA, Vol. 91, pp. 4096-4100 (April 1994).

[2] = target: T1, HIV-1 protease (wild type) (Human immunodeficiency virus type 1 group M subtype B, UniProt P04585); assay: Protease Inhibition Assay (Pepcleave), inhibition of microbial expressed HIV protease; format: biochemical; conditions: wild-type HIV-1 protease; mean of at least two independent experiments; read-out: Pepcleave Enzyme inhibition IC50
T1 construct: made in house; host or cells: Escherichia coli
Experimental: Assay for Inhibition of Microbial Expressed HIV Protease
Inhibition studies of the reaction of the protease (which was expressed in Eschericia coli) with a peptide substrate [Val-Ser-Gln-Asn-(betanaphtyl)Ala-Pro-Ile-Val]. The inhibitor is first preincubated with the HIV-1 protease (wild type) enzyme in assay buffer (50 mM sodium acetate, pH 5.5, 100 mM NaCl, and 0.1% BSA) for 30 minutes at room temperature. Substrate is added to 400 micromolar in a total volume of 80 microliters containing 10 picomolar HIV-1 protease and the reaction is incubated for 1 hour at 30° C. The reaction is quenched with the addition of 120 microliters of 10% phosphoric acid. The product formation is determined after separation of product and substrate on a Zorbax Eclipse XDB-C18 column connected to an Agilent 1100 high performance liquid chromatography system with fluorescence detection (excitation 270 nanometer and emission 330 nanometer). Alternatively, the inhibitor is preincubated with enzyme and substrate as described above, but in a total volume of 20 microliters containing 20 picomolar HIV-1 protease and the reaction is incubated for 1 hour at 30° C. The reaction is quenched with the addition of 30 microliters of 1 micromolar indinavir (indinavir is also used as an internal standard), and the product formation is determined after separation of product and substrate on a Zorbax Eclipse XDB-C18 column connected to an API 4000 mass spectrometer (Applied Biosystems) with multiple reaction monitoring (transitions were 644.5/428.9 and 615.4/422.2 (M1/M3) for product and indinavir respectively). The extent of inhibition of the reaction is determined from the peak area of the products. HPLC of the products, independently synthesized, provided quantitation standards and confirmation of the product composition.
Protease Inhibition Assay (“Pepcleave”) data were collected based on the wild-type HIV-1 protease enzyme. The assay monitors the cleavage of a 8-mer peptide (VSQN[β-Nal]PIV) where the tyrosine at P1 position is replaced by β-Naphthyl-alanine. Upon cleavage of the peptide by HIV-1 protease, the product is separated from substrate by HPLC column and detected at Ex.=270 nm/Em=330 nm.

SMILES: COC(=O)N[C@H](C(=O)Nc1cc(F)ccc1CC[C@@H](CO)N(CC1CC(F)(F)C1)S(=O)(=O)c1ccc2ncsc2c1)C(c1ccccc1)c1ccccc1 [Example 13, N-{2-[(3S)-3-{(1,3-benzothiazol-6-ylsulfonyl)[(3,3-difluorocyclobutyl)methyl]amino}-4-hydroxybutyl]-5-fluorophenyl}-Nα-(methoxycarbonyl)-β-phenyl-L-phenylalaninamide]
- IC95 [1]: 1180 nM
- pIC50 [2]: 8.72

SMILES: COC(=O)N[C@@H](Cc1ccccc1Cl)C(=O)Nc1ccccc1CC[C@@H](CO)N(CCC(C)C)S(=O)(=O)c1ccc(N)cc1 [Example 14, N-{2-[(3S)-3-{[(4-aminophenyl)sulfonyl](3-rnethylbutyl)amino}-4-hydroxybutyl]phenyl}-2-chloro-Nα-(methoxycarbonyl)-L-phenylalaninamide]
- IC95 [1]: 1180 nM
- pIC50 [2]: 8.92

SMILES: COC(=O)N[C@@H](Cc1ccccc1Cl)C(=O)Nc1ccccc1CC[C@@H](CO)N(Cc1cn[nH]c1)S(=O)(=O)c1ccc(N)cc1 [Example 15, N-{2[(3S)-3-{[(4-aminophenyl)sulfonyl](1H-pyrazol-4-ylmethyl)amino}-4-hydroxybutyl]phenyl}-2-chloro-Nα-(methoxycarbonyl)-L-phenylalaninamide]
- IC95 [1]: 2440 nM
- pIC50 [2]: 8.74

SMILES: COC(=O)N[C@H](C(=O)Nc1cccnc1CC[C@@H](CO)N(Cc1cnoc1)S(=O)(=O)c1ccc2ncsc2c1)C(c1ccccc1)c1ccccc1 [Example 18, N-(2-{(3S)-3-[(1,3-benzothiazol-6-ylsulfonyl)(isoxazol-4-ylmethyl)amino]-4-hydroxybutyl}pyridin-3-yl)-Nα-(methoxycarbonyl)-β-phenyl-L-phenylalaninamide]
- IC95 [1]: 755 nM
- pIC50 [2]: 8.64

SMILES: COC(=O)N[C@H](C(=O)Nc1cccnc1CC[C@@H](CO)N(Cc1cncnc1C)S(=O)(=O)c1ccc2ncsc2c1)C(c1ccccc1)c1ccccc1 [Example 19, N-[2[(3S)-3-{(1,3-benzothiazol-6-ylsulfonyl)[(4-methylpyrimidin-5-yl)methyl]amino)-4-hydroxybutyl]pyridin-3-yl]-Nα-(methoxycarbonyl)-β-phenyl-L-phenylalaninamide]
- IC95 [1]: 766 nM
- pIC50 [2]: 8.38

SMILES: COC(=O)N[C@H](C(=O)Nc1cnccc1CC[C@@H](CO)N(Cc1cncnc1C)S(=O)(=O)c1ccc2ncsc2c1)C(c1ccccc1)c1ccccc1 [Example 20, N-{4-[(3S)-3-{(1,3-benzothiazol-6-ylsulfonyl)[(4-methylpyrimidin-5-yl)methyl]amino}-4-hydroxybutyl]pyridin-3-yl}-Nα-(methoxycarbonyl)-β-phenyl-L-phenylalaninamide]
- IC95 [1]: 2200 nM
- pIC50 [2]: 8.46

SMILES: COC(=O)N[C@H](C(=O)Nc1c(SC[C@@H](CO)N(CCC(C)C)S(=O)(=O)c2ccc(N)cc2)cc[nH]c1=O)C(c1ccccc1)c1ccccc1 [Example 23, N-(4-{[(2R)-2-{[(4-aminophenyl)sulfonyl](3-methylbutyl)amino}-3-hydroxypropyl]sulfanyl}-2-oxo-1,2-dihydropyridin-3-yl)-Nα-(methoxycarbonyl)-β-phenyl-L-phenyl alaninamide]
- IC95 [1]: 2500 nM
- pIC50 [2]: 10.22

SMILES: COC(=O)N[C@H](C(=O)Nc1cnccc1SC[C@@H](CO)N(CC(C)C)S(=O)(=O)c1ccc2ncsc2c1)C(c1ccccc1)c1ccccc1 [Example 24, N-[4-({(2R)-2-[(1,3-benzothiazol-6-ylsulfonyl)(2-methylpropyl)amino]-3-hydroxypropyl}sulfanyl)pyridin-3-yl]-Nα-(methoxycarbonyl)-β-phenyl-L-phenylalaninamide]
- IC95 [1]: 1120 nM
- pIC50 [2]: 8.38

SMILES: [2H]C([2H])([2H])C([2H])(C([2H])([2H])[2H])C([2H])([2H])N([C@H](CO)CSc1ccncc1NC(=O)[C@@H](NC(=O)OC)C(c1ccccc1)c1ccccc1)S(=O)(=O)c1ccc2ncsc2c1 [Example 25, N-[4-({(2R)-2-[(1,3-benzothiazol-6-ylsulfonyl)(2-methylpropyld7)amino)-3-hydroxypropyl}sulfanyl)pyridin-3-yl]-Nα-(methoxycarbonyl)-β-phenyl-L-phenylalaninamide]
- IC95 [1]: 1150 nM
- pIC50 [2]: 8.32
